Measurements as given in US7586008B2, “Propofol analogs, process for their preparation, and methods of use” (Abraxis Bioscience, Inc., priority 2003, dated 2009).
“And” between values parts separate entries of the source, which are not always exact repeats. Equal entries are not always repeated. Where two headings read alike, the source gives them in different places.

How the values were obtained:
rats [1] = assay: In vivo hypnotic/anesthetic activity, time to recovery of righting reflex; set-up: species or system rat; conditions: for Anesthesia Activity (Time to awakening, min): rats, tail vein injection in DMSO, 28 μmol/kg (5 mg/kg for propofol); for Time to Awakening (h) [mean ± SD, (N)] / time rats were asleep at LD10: rat
Description: (§1) To determine the binding constant (KD) of propofol and its analogs for GABAA Cl channel, binding was determined as in Example 25 in presence of increasing concentration of propofol and the KD determined graphically using the Hill plots. In vivo hypnotic activity was determined as follows. Drugs solubilized in DMSO were administered to rats by tail vein injection (N=5 rats per group). A dose level of 28 μmol/kg (5 mg/kg for propofol) was used to compensate for differences in molecular weight of the analogs. Anesthetic activity in vivo was determined as time to recovery of righting reflex following administration of the compounds.
(§2) Dose escalation experiment was performed in rat in order to compare the toxicity and the pharmacodynamic of CT8 against propofol. Drugs solubilized in DMSO were administered to rats (5 rats per group). Anesthetic activity in vivo was determined as time to recovery of righting reflex. Mortality was also monitored and the LD50 curves for propofol and CT8 constructed. In order to adjust for the differences in molecular weight between the two compounds, μmol/kg dose was used.

rats [2] = assay: Dose escalation toxicity, mortality and LD curves; conditions: rat; for calculated LD10: drugs in DMSO
Description: as §2

in vivo = conditions: male, Sprague-Dawley, rat, whole blood, iv
GABAA Cl channel = assay: Competitive binding assay, GABAA Cl channel (3H-TBOB), bovine hippocampus; conditions: for IC50: read-out: GABAA CI Channel Binding (IC50); for Percent Inhibition, chloride channel: propofol at 10^-4 M
Description: (§3) The propofol binding site on GABAA was defined using a series of competitive binding assays. Frozen bovine hippocampus was thawed and homogenized in 40 volumes of ice-cold 0.32 M sucrose. The suspension was centrifuged at 1000×g for 10 minutes at 4° C. The pellet was washed twice in assay buffer and reacted with radioactive ligand in presence or absence of propofol at 10−4 M final concentration. The amount of radioactivity remained on the Whatman filter following filtration of the reaction mix and two washes with assay buffer was determined using a liquid scintillation counter. Inhibition of radioactive ligand binding by propofol represents the competitive binding of propofol to the same site as the radioactive ligand. GABAA agonist site, GABAA α-1 site, GABAA α-5 site, GABAA α-6 site, and GABAA Cl channel were assayed using ^3H-GABA, ^3H-Flunitrazepam, ^3H-RY80, ^3H-Ro 15-4513, and ^3H-TBOB.
as §1

[3] = rat; for V1 / V2: single i.v. bolus in DMSO, propofol 5 mg/kg, CT8 10 mg/kg
GABAA α-1 site = conditions: propofol at 10^-4 M, 3H-Flunitrazepam
Description: as §3

GABAA α-6 site = conditions: propofol at 10^-4 M, 3H-Ro 15-4513
Description: as §3

GABAA alpha 2 site = conditions: propofol at 10^-4 M
Description: as §3

GABAA agonist site = conditions: propofol at 10^-4 M, 3H-GABA
Description: as §3

[4] = increasing concentration, Hill plots

CC(C)c1cc(C(=O)c2ccc(F)cc2)cc(C(C)C)c1O [CT7, (4-fluorophenyl)-(4-hydroxy-3,5-diisopropylphenyl)methanone]
Anesthesia Activity (Time to awakening, min) (rats [1]): 34.2 ± 1.2, N = 2 min

CC(C)c1cc(C(=O)c2ccc(C(F)(F)F)cc2)cc(C(C)C)c1O [CT8, (4-(trifluoromethyl)phenyl)-(4-hydroxy-3,5-diisopropylphenyl)methanone]
Mortality (%) (rats [2]; dose 1.427959 μmol/kg): 0%
Mortality (%) (rats [2]; dose 2.855919 μmol/kg): 0%
Mortality (%) (rats [2]; dose 14.2796 μmol/kg): 0%
Mortality (%) (rats [2]; dose 28.55919 μmol/kg): 10%
Mortality (%) (rats [2]; dose 57.11838 μmol/kg): 40%
Mortality (%) (rats [2]; dose 114.2368 μmol/kg): 100%
Mortality (%) (rats [2]; dose 228.4735 μmol/kg): 100%
calculated LD10 (rats [2]): 29 µmol/kg
Time to Awakening (h) [mean ± SD, (N)] (rats [1]; dose 1.43 μmol/kg): 0.000 ± 0.000, (5) h
Time to Awakening (h) [mean ± SD, (N)] (rats [1]; dose 2.86 μmol/kg): 0.000 ± 0.000, (5) h
Time to Awakening (h) [mean ± SD, (N)] (rats [1]; dose 14.28 μmol/kg): 0.748 ± 0.094, (5) h
Time to Awakening (h) [mean ± SD, (N)] (rats [1]; dose 28.10 μmol/kg): 1.543 ± 0.085, (4) h
Time to Awakening (h) [mean ± SD, (N)] (rats [1]; dose 28.56 μmol/kg): 1.728 ± 0.154 (5) h
Time to Awakening (h) [mean ± SD, (N)] (rats [1]; dose 57.12 μmol/kg): 3.553 ± 0.166, (3) h
time rats were asleep at LD10 (rats [1]): 1.73 h
Vd (in vivo): 5.3 L/kg
clearance (in vivo): 1.33 mL/min/kg
IC50 (GABAA Cl channel; [4]): 570 nM
AUC, fold higher than that of propofol ([3]; i.v. bolus, ratio to propofol): 317 ×
CL, fold slower than propofol ([3]; i.v. bolus, ratio to propofol): 146 ×
V1, fold smaller than that of propofol ([3]; i.v. bolus, ratio to propofol): 375 ×
V2, fold smaller than that of propofol ([3]; i.v. bolus, ratio to propofol): 11 ×
Vss, fold smaller than that of propofol ([3]; i.v. bolus, ratio to propofol): 14 ×
V1 [3]: 0.04 L/kg
V2 [3]: 5.2 L/kg

CC(C)c1cc(C(=O)c2ccc([N+](=O)[O-])cc2)cc(C(C)C)c1O [CY61, (4-hydroxy-3,5-diisopropylphenyl)-(4-nitrophenyl)methanone]
Anesthesia Activity (Time to awakening, min) (rats [1]): 57.2 ± 0.7, N = 5 min
IC50 (GABAA Cl channel; [4]): 500 nM

CC(C)c1cc(C(=O)c2ccc(C(F)(F)F)c(F)c2)cc(C(C)C)c1O [CY93, (3-fluoro-4-(trifluoromethyl)phenyl)-(4-hydroxy-3,5-diisopropylphenyl)methanone]
Anesthesia Activity (Time to awakening, min) (rats [1]): 52.4 ± 37.7, N = 3 min
IC50 (GABAA Cl channel; [4]): 1270 nM

CC(C)c1cc(C(=O)c2cccc(C(F)(F)F)c2)cc(C(C)C)c1O [CY96, (3-(trifluoromethyl)phenyl)-(4-hydroxy-3,5-diisopropylphenyl)methanone]
Anesthesia Activity (Time to awakening, min) (rats [1]): 5.5 ± 2.4, N = 5 min
IC50 (GABAA Cl channel; [4]): 3910 nM

CC(C)c1cc(C(=O)c2cc(F)cc(C(F)(F)F)c2)cc(C(C)C)c1O [CY97, (3-fluoro-5-(trifluoromethyl)phenyl)-(4-hydroxy-3,5-diisopropylphenyl)methanone]
Anesthesia Activity (Time to awakening, min) (rats [1]): 1.9 ± 1.0, N = 5 min
IC50 (GABAA Cl channel; [4]): 4670 nM

CC(C)c1cc(C(=O)c2ccc3ccccc3c2)cc(C(C)C)c1O [CY99, (4-hydroxy-3,5-diisopropylphenyl)-(naphthalen-2-yl)methanone]
Anesthesia Activity (Time to awakening, min) (rats [1]): 5.5 ± 3.4, N = 5 min
GABAA CI Channel Binding (IC50, μM) (GABAA Cl channel; [4]): No activity

CC(C)c1cc(C(=O)c2cc(C(F)(F)F)cc(C(F)(F)F)c2)cc(C(C)C)c1O [CY104, (3,5-bis(trifluoromethyl)phenyl)-(4-hydroxy-3,5-diisopropylphenyl)methanone]
Anesthesia Activity (Time to awakening, min) (rats [1]): 6.4 ± 2.8, N = 4 min
IC50 (GABAA Cl channel; [4]): 21300 nM

CC(C)c1cc(C(=O)c2ccc(C(C)(C)C)cc2)cc(C(C)C)c1O [CY120, (4-tert-butylphenyl)-(4-hydroxy-3,5-diisopropylphenyl)methanone]
Anesthesia Activity (Time to awakening, min) (rats [1]): 15.5 ± 9.2, N = 2 min

CC(C)Cc1ccc(C(=O)c2cc(C(C)C)c(O)c(C(C)C)c2)cc1 [CY122, (4-hydroxy-3,5-diisopropylphenyl)-(4-isobutylphenyl)methanone]
Anesthesia Activity (Time to awakening, min) (rats [1]): 7.6 ± 1.8, N = 5 min

CON=C(c1ccc(C(F)(F)F)cc1)c1cc(C(C)C)c(O)c(C(C)C)c1 [CY127, 4-((4-(trifluoromethyl)phenyl)-(methoxyimino)methyl)-2,6-diisopropylphenol]
Anesthesia Activity (Time to awakening, min) (rats [1]): 8.8 ± 5.8, N = 5 min

CC(C)c1cc(Cc2ccc(C(F)(F)F)cc2)cc(C(C)C)c1O [CY130, 4-(4-(trifluoromethyl)benzyl)-2,6-diisopropylphenol]
Anesthesia Activity (Time to awakening, min) (rats [1]): 8.2 ± 3.0, N = 5 min

CC(C)c1cc(C(O)c2ccc(C(F)(F)F)cc2)cc(C(C)C)c1O (stereo not drawn) [CY135, 4-((4-(trifluoromethyl)phenyl)-(hydroxy)methyl)-2,6-diisopropylphenol]
Anesthesia Activity (Time to awakening, min) (rats [1]): 15.0 ± 11.4, N = 5 min

CC(C)c1cc(C(=O)c2ccc(I)cc2)cc(C(C)C)c1O [CY155, (4-hydroxy-3,5-diisopropylphenyl)-(4-iodophenyl)methanone]
IC50 (GABAA Cl channel; [4]): 570 nM

COc1ccc(C(=O)c2cc(C(C)C)c(O)c(C(C)C)c2)cc1 [CY157, (4-hydroxy-3,5-diisopropylphenyl)-(4-methoxyphenyl)methanone]
Anesthesia Activity (Time to awakening, min) (rats [1]): 0.0 + 0.0, N = 5 min

CC(C)c1cc(C(=O)c2ccc(C#N)cc2)cc(C(C)C)c1O [CY175, (4-cyanophenyl)-(4-hydroxy-3,5-diisopropylphenyl)methanone]
Anesthesia Activity (Time to awakening, min) (rats [1]): 43.4 ± 23.5, N = 2 min

CC(C)c1cc(C(=O)c2ccc(C(F)(F)F)nc2)cc(C(C)C)c1O [CY176, (6-(trifluoromethyl)pyridin-3-yl)-(4-hydroxy-3,5-diisopropylphenyl)methanone]
Anesthesia Activity (Time to awakening, min) (rats [1]): 14.9 + 21.1, N = 2 min

CC(C)c1cc(C(=O)c2ccc(S(C)(=O)=O)cc2)cc(C(C)C)c1O [CY177]
Anesthesia Activity (Time to awakening, min) (rats [1]): 4.6 ± 1.5, N = 5 min

CC(C)c1cc(C(=O)c2ccc(Br)cc2)cc(C(C)C)c1O [CY178, (4-bromophenyl)-(4-hydroxy-3,5-diisopropylphenyl)methanone]
Anesthesia Activity (Time to awakening, min) (rats [1]): 66.6 ± 17.9, N = 5 min

CCCc1ccc(C(=O)c2cc(C(C)C)c(O)c(C(C)C)c2)cc1 [CY181, (4-hydroxy-3,5-diisopropylphenyl)-(4-propylphenyl)methanone]
Anesthesia Activity (Time to awakening, min) (rats [1]): 9.0 + 20.1, N = 5 min

CC(C)c1cc(C(=O)c2ccc(Cl)cc2)cc(C(C)C)c1O [CY182, (4-chlorophenyl)-(4-hydroxy-3,5-diisopropylphenyl)methanone]
Anesthesia Activity (Time to awakening, min) (rats [1]): 67.7 ± 5.1, N = 3 min

CC(C)c1cccc(C(C)C)c1O [Propofol, 2,6-diisopropylphenol]
Mortality (%) (rats [2]; dose 5.609469 μmol/kg): 0%
Mortality (%) (rats [2]; dose 28.04734 μmol/kg): 10%
Mortality (%) (rats [2]; dose 56.09469 μmol/kg): 80%
Mortality (%) (rats [2]; dose 112.1894 μmol/kg): 100%
calculated LD10 (rats [2]): 28 µmol/kg
Time to Awakening (h) [mean ± SD, (N)] (rats [1]; dose 5.61 μmol/kg): 0.000 ± 0.000, (5) h
Time to Awakening (h) [mean ± SD, (N)] (rats [1]; dose 28.05 μmol/kg): 0.346 ± 0.149, (4) h and 0.350 ± 0.228 (5) h
Time to Awakening (h) [mean ± SD, (N)] (rats [1]; dose 56.09 μmol/kg): 0.600 ± 0.000, (1) h
time rats were asleep at LD10 (rats [1]): 0.35 h
Vd (in vivo): 73 L/kg
clearance (in vivo): 195 mL/min/kg
IC50 (GABAA Cl channel; [4]): 4860 nM
Percent Inhibition, chloride channel (GABAA Cl channel): only inhibited the binding of TBOB
Percent Inhibition, chloride channel (GABAA Cl channel; listed as propofol): 117.52%
Percent Inhibition, alpha 1 site (GABAA α-1 site): No significant inhibition
Percent Inhibition, alpha 1 site (GABAA α-1 site; listed as propofol): −14.31%
Percent Inhibition, alpha 6 site (GABAA α-6 site): No significant inhibition
Percent Inhibition, alpha 6 site (GABAA α-6 site; listed as propofol): −0.89%
Percent Inhibition, alpha 2 site (GABAA alpha 2 site): No significant inhibition
Percent Inhibition, alpha 2 site (GABAA alpha 2 site; listed as propofol): −15.58%
Percent Inhibition, agonist site (GABAA agonist site): No significant inhibition
Percent Inhibition, agonist site (GABAA agonist site; listed as propofol): 12.48%
V1 [3]: 15.0 L/kg
V2 [3]: 58.0 L/kg
